The values below come from US10189805B2, “Metabolism probes for therapy and diagnosis” (Vanderbilt University, priority 2014, dated 2019).

This assay concerns the target ASCT2 (Homo sapiens (Human), UniProt Q15758). The assay can be described thus: 3H-glutamine uptake inhibition in live HEK-293 cells. The assay is classed as cell-based. The note with it: for IC50: inhibition of 3H-glutamine (500 nM) uptake, HEK293 cells, 15 min at 37° C., pH 6.0; for potency compared with GPNA (in words): 3H-glutamine uptake, HEK-293 cells. The text has this:
Initial compound libraries focused on 2, 3, and 4 substituted Nγ-glutamylanilides with aryl, alicyclic, and heterocyclic substitutions. To evaluate the biological activity, compounds were initially screened at a single concentration for their ability to inhibit ^3H-glutamine uptake in live HEK-293 cells, an established model suitable for evaluating ASCT2 activity. […] The present inventors prioritized the 2-substitution as a determinant of ASCT2 activity among this series.
The glutamine uptake assays in HEK293 cells were carried out in 96 well plates (CulturPlate-96, Perkin Elmer). Cells were plated at a density of 35,000 cells per well 24 hours prior to carrying out the assay. Each set of conditions is carried out in triplicate. The wells are washed three times with 100 uL of assay buffer at pH 6.0 (containing 137 mM NaCl, 5.1 mM KCl, 0.77 mM KH2PO4, 0.71 mM MgSO4.7H2O, 1.1 mM CaCl2, 10 mM D-glucose, and 10 mM HEPES). […] (500 nM) in the same buffer is added along with inhibitor and allowed to incubate for 15 min at 37° C. Following incubation, the H-glutamine/inhibitor is removed and the cells are washed three times with buffer. The cells are then lysed by the addition of 50 uL 1M NaOH. 150 uL of scintillation fluid (Microscint 40, Perkin Elmer) is added and the plates are counted on a scintillation counter (Topcount, Perkin Elmer).

Chain of ASCT2 (Q15758 whole entry): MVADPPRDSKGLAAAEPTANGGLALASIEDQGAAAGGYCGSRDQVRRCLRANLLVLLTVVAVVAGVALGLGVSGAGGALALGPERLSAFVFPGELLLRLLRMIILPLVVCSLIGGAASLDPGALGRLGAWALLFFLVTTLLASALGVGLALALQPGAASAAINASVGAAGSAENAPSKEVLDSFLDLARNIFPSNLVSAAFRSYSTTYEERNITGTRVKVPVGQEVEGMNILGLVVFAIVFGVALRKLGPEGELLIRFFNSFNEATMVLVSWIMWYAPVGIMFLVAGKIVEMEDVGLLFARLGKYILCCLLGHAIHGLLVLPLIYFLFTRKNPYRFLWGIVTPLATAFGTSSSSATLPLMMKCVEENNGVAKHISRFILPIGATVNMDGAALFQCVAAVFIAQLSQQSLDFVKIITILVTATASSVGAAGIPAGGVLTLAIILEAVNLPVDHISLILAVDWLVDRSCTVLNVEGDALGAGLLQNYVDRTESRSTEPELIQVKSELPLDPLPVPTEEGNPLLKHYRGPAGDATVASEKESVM

By IC50 is commonly meant the concentration needed to halve the response being measured. Higher therefore signals a need for much substance. The molecule `N[C@@H](CCC(=O)NCc1ccccc1CS(=O)(=O)N1CCOCC1)C(=O)O` [Compound 19] gave an IC50 of 677 µM.
The same measure, in the same setting: under `N[C@@H](CCC(=O)Nc1ccc([N+](=O)[O-])cc1)C(=O)O` [Compound 1, L-γ-glutamyl-p-nitroanilide, reference compound] stands 954 µM.
The molecule `N[C@@H](CCC(=O)Nc1ccccc1CCc1ccncc1)C(=O)O` [Compound 16] displayed an IC50 of 832 µM. This IC50 and that of the molecule before are within 1.5-fold of each other.
With `CN1CCN(Cc2ccccc2CNC(=O)CC[C@H](N)C(=O)O)CC1` [Compound 20, N5-(2-((4-methylpiperazin-1-yl)methyl)benzyl)-L-glutamine], the “potency compared with GPNA (in words)” value is “significantly greater potency than GPNA” and the midpoint of inhibition, the IC50, lay at 697 µM.
Molecule `N[C@@H](CCC(=O)Nc1ccccc1N1CCCCC1)C(=O)O` [Compound 12] displayed a concentration for half-maximal inhibition (IC50) of 776 µM.
Take `N[C@@H](CCC(=O)Nc1ccccc1-c1nc2ccccc2s1)C(=O)O` [Compound 4, N^5-(2-(benzo[d]thiazol-2-yl)phenyl)-L-glutamine]: the “potency compared with GPNA (in words)” value is reported as “significantly greater potency than GPNA” and the IC50 amounted to 436 µM.
